Measured values reported in US12030906B2, “Crystalline forms of (s)-2-ethylbutyl 2-(((s)-(((2r,3s,4r,5r)-5-(4-aminopyrrolo[2,1-f] [1,2,4]triazin-7-yl)-5-cyano-3,4-dihydroxytetrahydrofuran-2-yl)methoxy) (phenoxy) phosphoryl)amino)propanoate” (priority 2017, dated 2024).
Read-outs that look alike come from different tables or passages of the source.

Assays:
[1] = Competition experiment between Formula I Form I and Formula I Form II in isopropyl acetate; type: physicochemical; settings: Experiment 26; Form I 11 mg + Mixture II 55.4 mg in IPAc 889 mg; 75 mg/g; suspension
Experimental: A competition experiment between Formula I Form I and Formula I Form II was conducted by mixing Formula I Form I with isopropyl acetate, followed by adding Mixture II, a mixture of Formula I Form II and Formula I Form IV.

[2] = type: physicochemical; settings: for XRPD: room temperature, two weeks
[3] = Competition experiment between Formula I Form II and Formula I Form IV in IPA/Water at 50° C.; type: physicochemical
[4] = Experiment 023, wt % water 9.3, 1 day in suspension, Temp. 50
[5] = Experiment 030, wt % water 4.9, 1, 3 days in suspension, Temp. 50
[6] = Experiment 033, wt % water 39.5, 3 days in suspension, Temp. 50
[7] = Experiment 034, wt % water 49.9, 1, 3 days in suspension, Temp. 50

For `CCC(CC)COC(=O)[C@H](C)N[P@](=O)(OC[C@H]1O[C@@](C#N)(c2ccc3c(N)ncnn23)[C@H](O)[C@@H]1O)Oc1ccccc1` [Formula I Form I, (S)-2-ethylbutyl 2-(((S)-(((2R,3S,4R,5R)-5-(4-aminopyrrolo[2,1-f][1,2,4]triazin-7-yl)-5-cyano-3,4-dihydroxytetrahydrofuran-2-yl)methoxy)(phenoxy)phosphoryl)amino)propanoate], which “Comment (form conversion)” value [1] is on record?
Its value is “Form II in 1 day”.

For `CCC(CC)COC(=O)[C@H](C)N[P@](=O)(OC[C@H]1O[C@@](C#N)(c2ccc3c(N)ncnn23)[C@H](O)[C@@H]1O)Oc1ccccc1` [Formula I Form II, (S)-2-ethylbutyl 2-(((S)-(((2R,3S,4R,5R)-5-(4-aminopyrrolo[2,1-f][1,2,4]triazin-7-yl)-5-cyano-3,4-dihydroxytetrahydrofuran-2-yl)methoxy)(phenoxy)phosphoryl)amino)propanoate], which more stable form ([2]; several competition experiments) is on record?
Its more stable form is “more stable form”.

With `CCC(CC)COC(=O)[C@H](C)N[P@](=O)(OC[C@H]1O[C@@](C#N)(c2ccc3c(N)ncnn23)[C@H](O)[C@@H]1O)Oc1ccccc1` [Formula I Mixture II, (S)-2-ethylbutyl 2-(((S)-(((2R,3S,4R,5R)-5-(4-aminopyrrolo[2,1-f][1,2,4]triazin-7-yl)-5-cyano-3,4-dihydroxytetrahydrofuran-2-yl)methoxy)(phenoxy)phosphoryl)amino)propanoate] as the compound, how does the DSC [3, 4] read?
Its DSC is “Form II”.

And the XRPD [3, 4]?
Its XRPD is “Form II”.

And the DSC [3, 5]?
The DSC was “Form II”.

And the XRPD [3, 5]?
The XRPD was “Form II”.

What about the DSC [3, 6] of the same compound?
Its DSC is “Form II”.

And the XRPD [3, 6]?
Its XRPD is “Form II”.

What about the DSC [3, 7] of the same compound?
Its DSC is “Form II”.

What about the XRPD [3, 7] of the same compound?
Its XRPD is “Form II”.

And the DSC ([3]; Experiment 037, wt % water 0.93, 2 days in suspension, Temp. 50, 22)?
The DSC was “Form II”.

What about the conversion of form ([3]; IPA/Water (3/6 V/V) at 50° C. for several days, all experiments) of the same compound?
Its conversion of form is “conversion to Formula I Form II”.

What about the “Comment (form conversion)” value [1] of the same compound?
Its value is “Form II in 1 day”.

With `CCC(CC)COC(=O)[C@H](C)N[P@](=O)(OC[C@H]1O[C@@](C#N)(c2ccc3c(N)ncnn23)[C@H](O)[C@@H]1O)Oc1ccccc1` [Formula I, (S)-2-ethylbutyl 2-(((S)-(((2R,3S,4R,5R)-5-(4-aminopyrrolo[2,1-f][1,2,4]triazin-7-yl)-5-cyano-3,4-dihydroxytetrahydrofuran-2-yl)methoxy)(phenoxy)phosphoryl)amino)propanoate] as the compound, how does the XRPD ([2]; Experiment 12, 1-propanol) read?
Its XRPD is “Partially converted to Form II”.

And the XRPD ([2]; Experiment 14, THF)?
The XRPD was “Partially converted to Form II”.

What about the XRPD ([2]; Experiment 16, 2-propanol) of the same compound?
The XRPD was “Partially converted to Form II”.

What about the XRPD ([2]; Experiment 18, ACN) of the same compound?
Its XRPD is “Form II”.

And the XRPD ([2]; Experiment 20, DCM)?
Its XRPD is “Partially converted to Form II”.

What about the XRPD ([2]; Experiment 22, Ethanol) of the same compound?
The XRPD was “Form II”.

What about the XRPD ([2]; Experiment 24, MTBE) of the same compound?
The XRPD was “Partially converted to Form II”.

And the XRPD ([2]; Experiment 26, 2MeTHF)?
The XRPD was “Partially converted to Form II”.

And the XRPD ([2]; Experiment 28, EtOAc/water)?
The XRPD was “Form II”.

What about the XRPD ([2]; Experiment 30, MEK) of the same compound?
The XRPD was “Form II”.

What about the XRPD ([2]; Experiment 32, Ethanol/water aw 0.4) of the same compound?
Its XRPD is “Form II”.
